Source: patent US20150011542A1, “Methods of Treating Adverse Intestinal Effects of Non-Steroidal Anti-Inflammatory Drugs” (University of Connecticut, priority 2012, published 2015)
Entries after “also recorded” stand apart in the source; their conditions may differ.

What was measured:
E. coli β-glucuronidase = molecular target: T1, E. coli β-glucuronidase (Escherichia coli, UniProt P05804); test: Inhibition of E. coli β-glucuronidase cleavage of diclofenac 1-β-O-acyl glucuronide (HPLC-UV of DCF product); assay type: biochemical
T1 construct: made in house

[1] = cited from earlier work
[2] = system: DCF-induced small intestinal ulceration; test: Diclofenac-induced small intestinal ulceration in mice (NBT staining, morphometry, histopathology); assay type: in vivo
Text: Male C57BL/6J mice were obtained from The Jackson Laboratory (Bar Harbor, Me.). The mice were acclimatized for three weeks before the experiments and were 10-12 weeks of age at the start of the experiments. The animals were kept on a 14:10-hour light:dark cycle. They received mouse chow (Teklad Global Rodent Diet, Harlan Laboratories, Boston, Mass.) and water ad libitum. All studies were approved by the Institutional Animal Care and Use Committee of the University of Connecticut. […] All animals were treated at five hours before the start of the dark cycle. […] Control animals received methyl cellulose and/or Solutol HS-15.
(§1) Enteropathy was assessed and graded as described previously (Ramirez-Alcantara et al., Am. J. Physiol. (Gastrointest. Liver Physiol.), 297:G990-G998 (2009)). Briefly, mice were sacrificed by CO2 inhalation at 18 hours post-DCF (when the development of mucosal injury was maximal). A midline incision was made and blood was obtained via cardiac puncture. Serum was prepared and frozen at −80° C. until use for analysis. The entire small intestine (from the gastroduodenal junction to the ileocecal junction) was removed and opened longitudinally along the anti-mesenteric side. The tissue was rinsed in cold PBS and incubated for 15 minutes in 1 mM nitroblue tetrazolium (NBT) solution containing 16 mM HEPES-NaOH, 125 mM NaCl buffer, 3.5 mM KCl, and 10 mM glucose. Next, the tissues were fixed in 10% zinc formalin for 24 hours, washed, and transferred to 70% ethanol. The intestine was metrically divided into four quartiles of equal length and evaluated at 10× magnification for quantitative and qualitative analysis of mucosal injury, and the lesions were assigned to the respective quartiles. The following scoring system was used: 0, no apparent lesions; 1, small erosions or ulcers (<0 1 mm); 2, medium ulcers (0.1-0.8 mm); 3, large confluent ulcers (>0.8 mm) In addition, the total area of the lesions was quantified by Image J software. The formalin-fixed tissue was embedded in paraffin, and 5-μm sections were stained with hematoxylin/eosin for histopathological evaluation. Serum activity of alkaline phosphatase (ALP) was measured with a kinetic colorimetric kit (BioAssay Systems, Hayward, Calif.).

[3] = mouse, in vivo, ip, 60 mg/kg
in vivo = settings: male, C57BL/6, mouse, 60 mg/kg
[4] = humans, cited from earlier work
[5] = Pharmacokinetic profiling of diclofenac in mice with or without Inh-1 pretreatment; settings: male, C57BL/6, mouse, in vivo, ip, 60 mg/kg
[6] = system: serum alkaline phosphatase (ALP) activity; test: Serum alkaline phosphatase activity as biomarker of enteropathy; assay type: in vivo, mice; settings: Inh-1 pretreatment; 18 h post-DCF
Method: as §1, with “(Ramirez-[…]” for “(Ramirez-Alcantara”, “297:[…]-[…]” for “297:G990-G998”, “-80°” for “−80°”, “Next, the tissues were fixed in 10% zinc formalin for 24 hours, washed, and transferred to 70% ethanol.” left out, “The following scoring system was used: 0, no apparent lesions; 1, small erosions or ulcers (<0 1 mm); 2, medium ulcers (0.1-0.8 mm); 3, large confluent ulcers (>0.8 mm) In addition, the total area of the lesions was quantified by Image J software.” left out

T1 sequence (P05804 whole entry): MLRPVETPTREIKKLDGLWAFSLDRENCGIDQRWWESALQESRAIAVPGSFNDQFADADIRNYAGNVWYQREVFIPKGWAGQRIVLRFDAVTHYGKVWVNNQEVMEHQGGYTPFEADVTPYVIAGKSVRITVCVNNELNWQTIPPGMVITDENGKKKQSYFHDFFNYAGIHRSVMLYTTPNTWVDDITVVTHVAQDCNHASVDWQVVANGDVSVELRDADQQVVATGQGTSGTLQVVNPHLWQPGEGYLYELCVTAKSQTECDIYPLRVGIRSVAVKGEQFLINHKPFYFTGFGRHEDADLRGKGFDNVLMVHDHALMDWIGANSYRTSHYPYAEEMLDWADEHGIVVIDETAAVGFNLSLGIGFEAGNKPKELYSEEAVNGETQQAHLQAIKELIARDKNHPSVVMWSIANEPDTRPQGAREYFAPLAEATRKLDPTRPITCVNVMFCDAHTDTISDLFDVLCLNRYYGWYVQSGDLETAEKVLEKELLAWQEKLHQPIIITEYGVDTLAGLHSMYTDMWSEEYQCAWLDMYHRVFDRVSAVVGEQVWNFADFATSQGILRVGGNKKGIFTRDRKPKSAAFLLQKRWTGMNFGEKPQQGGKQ

## O=C(Cc1ccccc1Nc1c(Cl)cccc1Cl)O[C@@H]1O[C@H](C(=O)O)[C@@H](O)[C@H](O)[C@H]1O [DCF-AG, diclofenac 1-β-O-acyl glucuronide]
E. coli β-glucuronidase; various concentrations, data not shown
  conversion of DCF-AG to its aglycone by purified enzyme (substrate): converted DCF-AG (various concentrations) to its aglycone
[1]; gallbladder-cannulated mice
  amount of biliary DCF-AG relative to parent DCF: 117 fold
  amount of biliary DCF-AG relative to ring-hydroxylated DCF: 22 fold
[1]; mice
  amount of DCF-AG in bile: approximately 4 % of the dose

## O=C(O)Cc1ccccc1Nc1c(Cl)cccc1Cl [Diclofenac, diclofenac]
[2]; DCF 60 mg/kg ip, single dose, 18 h
  small intestinal ulceration caused by DCF alone: developed typical nitroblue tetrazolium-(NBT-) positive areas of ulceration in the jejunum and ileum
[3]
  apparent Cmax: high micromolar range
[1]; during 60 minutes after intravenous 5 mg/kg in mice
  [14C]-DCF equivalents appearing in bile: 42%
In vivo
  Tmax: 9.6 min
In vivo; ip
  AUC(0-t): 208 µg·h/mL
  Cmax: 265 µg/mL
  Tmax: 10 min
[4]; including AGs of 4′-hydroxy-DCF
  total DCF clearance in the form of glucuronides: approximately 75%
[4]; initial studies
  DCF excreted via bile: 10-20%
[5]
  half-life: 169 min

## CCOc1ccc(NC(=S)N(CCO)Cc2cc3cc(C)cc(C)c3[nH]c2=O)cc1 [Inh-1, ((6,8-dimethyl-2-oxo-1,2-dihydroquinolin-3-yl)methyl)-3-(4-ethoxyphenyl)-1-(2-hydroxyethyl)thiourea]
E. coli β-glucuronidase; increasing Inh-1 concentrations, DCF-AG 4 mM, FIG. 1B
  inhibition of product (free DCF) formation: concentration-dependent inhibition of product formation
E. coli β-glucuronidase; read-out: inhibition of release of free DCF from DCF-AG
  inhibition at 100 µM: > 90%
[2]; Inh-1 10 μg/mouse po b.i.d. x2 days before DCF 60 mg/kg ip, 18 h post-DCF
  ulcer size and number, quartiles 3 and 4: greatly reduced both in size and number
[2]; Inh-1 pretreatment plus DCF 60 mg/kg ip
  histopathology: ulcers with loss of villi and inflammatory response: largely prevented these changes
[2]; Inh-1 pretreatment plus DCF 60 mg/kg ip, jejunum, 18 h
  NBT-positive areas of ulceration, macroscopic: absence of any large ulceration; also recorded: only few isolated and small NBT-positive areas
[2]; mice, overall conclusion
  protection from DCF-induced acute small intestinal injury: significant protection
[6]
  DCF-associated decrease in serum alkaline phosphatase (ALP) activity: largely prevented
